From patent US10144706B2 (BRISTOL-MYERS SQUIBB COMPANY, priority 2016, dated 2018)
Like-named read-outs stand apart in the source and are kept apart here.

Target: T1, PD-1/PD-L1 interaction (PD-1-Ig / PD-L1-His) (Homo sapiens, UniProt Q9NZQ7)
T1 construct: hPDL1(18-239)-TVMV-His; TVMV protease site linker (C); made in house; host or cells: HEK293T
Assay: PD-1/PD-L1 Homogenous Time-Resolved Fluorescence (HTRF) binding assay
Settings: PD-L1-His 10 nM, PD-1-Ig 20 nM, read-out: Range or IC50
How it was run: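 HTRF detection used 1 nM europium-cryptate anti-Ig and 20 nM APC anti-His. Compounds first saw 10 nM PD-L1-His for 15 min, and 20 nM PD-1-Ig was then added for another 15 min. Buffer was dPBS plus 0.1% BSA and 0.05% Tween-20. All concentrations are final.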

T1 sequence (Q9NZQ7 with tags, fused parts or gaps): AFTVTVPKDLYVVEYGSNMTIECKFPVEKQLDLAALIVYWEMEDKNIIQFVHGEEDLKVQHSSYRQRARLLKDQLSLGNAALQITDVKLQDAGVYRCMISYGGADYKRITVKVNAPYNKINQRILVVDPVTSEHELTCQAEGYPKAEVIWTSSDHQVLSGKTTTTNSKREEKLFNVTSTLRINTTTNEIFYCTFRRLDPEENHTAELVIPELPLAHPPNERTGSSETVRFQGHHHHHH

| IC50 (IC50 range class) [nM] | IC50 (numeric IC50) [nM] | Compound |
| --- | --- | --- |
| 0.04 to 20 | – | Cc1c(COc2cc(OCc3cncc(C#N)c3)c(CN3CC(C(=O)O)C3)cc2Cl)cccc1-c1cccc(COc2cc(OCc3cncc(C#N)c3)c(CN3CC(C(=O)O)C3)cc2Cl)c1C [Example 40420] |
| 0.04 to 20 | – | Cc1c(COc2cc(OCc3cncc(C#N)c3)c(CN3C[C@@H](C)C[C@H]3C(=O)O)cc2Cl)cccc1-c1cccc(COc2cc(OCc3cncc(C#N)c3)c(CN3C[C@@H](C)C[C@H]3C(=O)O)cc2Cl)c1C [Example 40430] |
| 0.04 to 20 | – | Cc1c(COc2cc(OCc3cncc(C#N)c3)c(CNC(C(=O)O)C(C)C)cc2Cl)cccc1-c1cccc(COc2cc(OCc3cncc(C#N)c3)c(CNC(C(=O)O)C(C)C)cc2Cl)c1C (stereo not shown) [Example 40440] |
| 0.04 to 20 | – | CSCCC(NCc1cc(Cl)c(OCc2cccc(-c3cccc(COc4cc(OCc5cncc(C#N)c5)c(CNC(CCSC)C(=O)O)cc4Cl)c3C)c2C)cc1OCc1cncc(C#N)c1)C(=O)O (stereo not shown) [Example 40450] |
| 0.04 to 20 | – | Cc1c(COc2cc(OCc3cncc(C#N)c3)c(CNC(Cc3c[nH]c4ccccc34)C(=O)O)cc2Cl)cccc1-c1cccc(COc2cc(OCc3cncc(C#N)c3)c(CNC(Cc3c[nH]c4ccccc34)C(=O)O)cc2Cl)c1C (stereo not shown) [Example 40460] |
| 0.04 to 20 | – | Cc1c(COc2cc(OCc3cncc(C#N)c3)c(CN[C@@H](CC#N)C(=O)O)cc2Cl)cccc1-c1cccc(COc2cc(OCc3cncc(C#N)c3)c(CN[C@@H](CC#N)C(=O)O)cc2Cl)c1C [Example 40470] |
| 0.04 to 20 | – | Cc1c(COc2cc(OCc3cncc(C#N)c3)c(CNC(Cc3ccccc3)C(=O)O)cc2Cl)cccc1-c1cccc(COc2cc(OCc3cncc(C#N)c3)c(CNC(Cc3ccccc3)C(=O)O)cc2Cl)c1C (stereo not shown) [Example 40480] |
| 0.04 to 20 | – | Cc1c(COc2cc(OCc3cncc(C#N)c3)c(CN3CCC[C@H](C(=O)O)C3)cc2Cl)cccc1-c1cccc(COc2cc(OCc3cncc(C#N)c3)c(CN3CCC[C@H](C(=O)O)C3)cc2Cl)c1C [Example 40490] |
| 0.04 to 20 | – | Cc1c(COc2cc(OCc3cncc(C#N)c3)c(CNC[C@H](C)C(=O)O)cc2Cl)cccc1-c1cccc(COc2cc(OCc3cncc(C#N)c3)c(CNC[C@H](C)C(=O)O)cc2Cl)c1C [Example 40500] |
| 0.04 to 20 | – | Cc1c(COc2cc(OCc3cncc(C#N)c3)c(CNC3CCC[C@@H]3C(=O)O)cc2Cl)cccc1-c1cccc(COc2cc(OCc3cncc(C#N)c3)c(CN[C@@H]3CCC[C@@H]3C(=O)O)cc2Cl)c1C (stereo partly shown) [Example 40510] |
| 90.1 to 1000 | – | Cc1c(COc2cc(OCc3cncc(C#N)c3)c(CN3CC(C(=O)O)C(c4ccccc4Cl)C3)cc2Cl)cccc1-c1cccc(COc2cc(OCc3cncc(C#N)c3)c(CN3CC(C(=O)O)C(c4ccccc4Cl)C3)cc2Cl)c1C (stereo not shown) [Example 40520] |
| 90.1 to 1000 | – | Cc1c(COc2cc(OCc3cncc(C#N)c3)c(CN[C@H](CC(=O)O)Cc3ccc(I)cc3)cc2Cl)cccc1-c1cccc(COc2cc(OCc3cncc(C#N)c3)c(CN[C@H](CC(=O)O)Cc3ccc(I)cc3)cc2Cl)c1C [Example 40530] |
| – | 9220 | COC(=O)CC(CC(C)C)NCc1cc(Cl)c(OCc2cccc(-c3cccc(COc4cc(OCc5cncc(C#N)c5)c(CNC(CC(=O)OC)CC(C)C)cc4Cl)c3C)c2C)cc1OCc1cncc(C#N)c1 (stereo not shown) [Example 40550] |
| 90.1 to 1000 | – | Cc1c(COc2cc(OCc3cncc(C#N)c3)c(CNC(Cc3ccccc3)C(N)=O)cc2Cl)cccc1-c1cccc(COc2cc(OCc3cncc(C#N)c3)c(CNC(Cc3ccccc3)C(N)=O)cc2Cl)c1C (stereo not shown) [Example 40590] |
| 20.1 to 90 | – | Cc1c(COc2cc(OCc3cncc(C#N)c3)c(CN[C@@H](Cc3cnc[nH]3)C(N)=O)cc2Cl)cccc1-c1cccc(COc2cc(OCc3cncc(C#N)c3)c(CN[C@@H](Cc3cnc[nH]3)C(N)=O)cc2Cl)c1C [Example 40620] |
| 20.1 to 90 | – | Cc1c(COc2cc(OCc3cncc(C#N)c3)c(CN[C@H](C(N)=O)C3CC3)cc2Cl)cccc1-c1cccc(COc2cc(OCc3cncc(C#N)c3)c(CN[C@H](C(N)=O)C3CC3)cc2Cl)c1C [Example 40670] |
| 90.1 to 1000 | – | Cc1c(COc2cc(OCc3cncc(C#N)c3)c(CN3CCC[C@H]3C(N)=O)cc2Cl)cccc1-c1cccc(COc2cc(OCc3cncc(C#N)c3)c(CN3CCC[C@H]3C(N)=O)cc2Cl)c1C [Example 40680] |
| 90.1 to 1000 | – | Cc1c(COc2cc(OCc3cncc(C#N)c3)c(CN3CCC[C@@H]3C(N)=O)cc2Cl)cccc1-c1cccc(COc2cc(OCc3cncc(C#N)c3)c(CN3CCC[C@@H]3C(N)=O)cc2Cl)c1C [Example 40690] |
| 0.04 to 20 | – | Cc1c(COc2cc(OCc3cncc(C#N)c3)c(CN[C@@H](Cc3c[nH]c4ccccc34)C(=O)O)cc2Cl)cccc1-c1cccc(COc2cc(OCc3cncc(C#N)c3)c(CN[C@@H](Cc3c[nH]c4ccccc34)C(=O)O)cc2Cl)c1C [Example 40700] |
| 0.04 to 20 | – | COC(=O)CC(O)CNCc1cc(Cl)c(OCc2cccc(-c3cccc(COc4cc(OCc5cncc(C#N)c5)c(CNCC(O)CC(=O)OC)cc4Cl)c3C)c2C)cc1OCc1cncc(C#N)c1 (stereo not shown) [Example 40710] |

| IC50 (IC50 range class) [nM] | IC50 (numeric IC50) [nM] | Compound |
| --- | --- | --- |
| 20.1 to 90 | – | COC(=O)CC(O)CNCc1cc(Cl)c(OCc2cccc(-c3cccc(COc4cc(OCc5cncc(C#N)c5)c(CNC/C=C\C(=O)O)cc4Cl)c3C)c2C)cc1OCc1cncc(C#N)c1 (stereo not shown) [Example 40720] |
| – | 22 | Cc1c(COc2cc(OCc3cncc(C#N)c3)c(CNC/C=C\C(=O)O)cc2Cl)cccc1-c1cccc(COc2cc(OCc3cncc(C#N)c3)c(CNC/C=C\C(=O)O)cc2Cl)c1C [Example 40730] |
| 0.04 to 20 | – | Cc1c(COc2cc(OCc3cncc(C#N)c3)c(CN[C@@H](CCO)C(=O)O)cc2Cl)cccc1-c1cccc(COc2cc(OCc3cncc(C#N)c3)c(CN[C@@H](CCO)C(=O)O)cc2Cl)c1C [Example 40740] |
| 0.04 to 20 | – | CCCN(Cc1cc(Cl)c(OCc2cccc(-c3cccc(COc4cc(OCc5cncc(C#N)c5)c(CN(CCC)[C@@H](CCO)C(=O)O)cc4Cl)c3C)c2C)cc1OCc1cncc(C#N)c1)[C@@H](CCO)C(=O)O [Example 40750] |
| 0.04 to 20 | – | Cc1c(COc2cc(OCc3cncc(C#N)c3)c(CN(C)[C@@H](CCO)C(=O)O)cc2Cl)cccc1-c1cccc(COc2cc(OCc3cncc(C#N)c3)c(CN(C)[C@@H](CCO)C(=O)O)cc2Cl)c1C [Example 40760] |
| – | 0.04 | Cc1c(COc2cc(OCc3cncc(C#N)c3)c(CN[C@@H](CCO)C(=O)O)cc2Cl)cccc1-c1cccc(COc2cc(OCc3cncc(C#N)c3)c(CN[C@H](CCO)C(=O)O)cc2Cl)c1C [Example 40770] |
| 0.04 to 20 | – | COCCC(NCc1cc(Cl)c(OCc2cccc(-c3cccc(COc4cc(OCc5cncc(C#N)c5)c(CNC(CCOC)C(=O)O)cc4Cl)c3C)c2C)cc1OCc1cncc(C#N)c1)C(=O)O (stereo not shown) [Example 40780] |
| 0.04 to 20 | – | CCN(Cc1cc(Cl)c(OCc2cccc(-c3cccc(COc4cc(OCc5cncc(C#N)c5)c(CN(CC)C(CCO)C(=O)O)cc4Cl)c3C)c2C)cc1OCc1cncc(C#N)c1)C(CCO)C(=O)O (stereo not shown) [Example 40800] |
| 20.1 to 90 | – | Cc1c(COc2cc(OCc3cncc(C#N)c3)c(CN(C)C(CCO)C(=O)O)cc2Cl)cccc1-c1cccc(COc2cc(OCc3cncc(C#N)c3)c(CN(C)C(CCO)C(=O)O)cc2Cl)c1C (stereo not shown) [Example 40810] |
| 0.04 to 20 | – | CCCN(Cc1cc(Cl)c(OCc2cccc(-c3cccc(COc4cc(OCc5cncc(C#N)c5)c(CN(CCC)C(CCO)C(=O)O)cc4Cl)c3C)c2C)cc1OCc1cncc(C#N)c1)C(CCO)C(=O)O (stereo not shown) [Example 40820] |
| 0.04 to 20 | – | Cc1c(COc2cc(OCc3cncc(C#N)c3)c(CN(CC3CC3)C(CCO)C(=O)O)cc2Cl)cccc1-c1cccc(COc2cc(OCc3cncc(C#N)c3)c(CN(CC3CC3)C(CCO)C(=O)O)cc2Cl)c1C (stereo not shown) [Example 40830] |
| 0.04 to 20 | – | Cc1c(COc2cc(OCc3cncc(C#N)c3)c(CNC(CCO)C(=O)O)cc2Cl)cccc1-c1cccc(COc2cc(OCc3cncc(C#N)c3)c(CN(CC3CC3)C(CCO)C(=O)O)cc2Cl)c1C (stereo not shown) [Example 40840] |
| 0.04 to 20 | – | Cc1c(COc2cc(OCc3cncc(C#N)c3)c(CN(CC(C)C)C(CCO)C(=O)O)cc2Cl)cccc1-c1cccc(COc2cc(OCc3cncc(C#N)c3)c(CN(CC(C)C)C(CCO)C(=O)O)cc2Cl)c1C (stereo not shown) [Example 40850] |
| 0.04 to 20 | – | Cc1c(COc2cc(OCc3cncc(C(N)=O)c3)c(CN[C@@H](CCO)C(=O)O)cc2Cl)cccc1-c1cccc(COc2cc(OCc3cncc(C(N)=O)c3)c(CN[C@@H](CCO)C(=O)O)cc2Cl)c1C [Example 40870] |
| 0.04 to 20 | – | Cc1c(COc2cc(OCc3cncc(C#N)c3)c(CN[C@@H](C(=O)O)[C@H](C)O)cc2Cl)cccc1-c1cccc(COc2cc(OCc3cncc(C#N)c3)c(CN[C@@H](C(=O)O)[C@H](C)O)cc2Cl)c1C [Example 40880] |
| 0.04 to 20 | – | Cc1c(COc2cc(OCc3cncc(C#N)c3)c(CN[C@@H](C(=O)O)[C@@H](C)O)cc2Cl)cccc1-c1cccc(COc2cc(OCc3cncc(C#N)c3)c(CN[C@@H](C(=O)O)[C@@H](C)O)cc2Cl)c1C [Example 40890] |
| 1000 to 10000 | – | COC(=O)[C@@H](NCc1cc(Cl)c(OCc2cccc(-c3cccc(COc4cc(OCc5cncc(C#N)c5)c(CN[C@H](C(=O)OC)[C@H](C)O)cc4Cl)c3C)c2C)cc1OCc1cncc(C#N)c1)[C@H](C)O [Example 40900] |
| 1000 to 10000 | – | COC(=O)[C@H](NCc1cc(Cl)c(OCc2cccc(-c3cccc(COc4cc(OCc5cncc(C#N)c5)c(CN[C@H](C(=O)O)C(=O)OC)cc4Cl)c3C)c2C)cc1OCc1cncc(C#N)c1)C(=O)O [Example 40910] |
| 0.04 to 20 | – | Cc1c(COc2cc(OCc3cncc(C#N)c3)c(CN[C@H](C(=O)O)[C@@H](C)OC(C)(C)C)cc2Cl)cccc1-c1cccc(COc2cc(OCc3cncc(C#N)c3)c(CN[C@H](C(=O)O)[C@@H](C)OC(C)(C)C)cc2Cl)c1C [Example 40930] |
| 0.04 to 20 | – | CO[C@H](C)[C@H](NCc1cc(Cl)c(OCc2cccc(-c3cccc(COc4cc(OCc5cncc(C#N)c5)c(CN[C@H](C(=O)O)[C@@H](C)OC)cc4Cl)c3C)c2C)cc1OCc1cncc(C#N)c1)C(=O)O [Example 40940] |
